A short description of assay [1]: Oil stability index (OSI) method, soybean oil. The note with it: 500 ppm antioxidant, FIG. 1.
The nature of assay [2]: Active oxygen method (AOM), soybean oil. The note with it: soybean oil subjected to oxidative stress, 500 ppm antioxidant, FIG. 1.

Regarding `CCOc1ccc2c(c1)C(C)=CC(C)(C)N2` [ETX, 6-ethoxy-1,2-dihydro-2,2,4-trimethylquinoline], the OSI induction time result in assay [1] was “about 6 hr”. Also, the peroxide values entry in assay [2] was “about 11 meq”.

For the origin of these results see US20080015217A1, “ANTIOXIDANT COMBINATIONS FOR USE IN RUMINANT FEED RATIONS” (NOVUS INTERNATIONAL, INC., priority 2006, published 2008).
